According to patent US7462478B2, “Polynucleotide encoding 2-hydroxyisoflavanone dehydratase and application of the same” (Nihon University, priority 2003, dated 2008):
Values joined by “and” are separate entries in the source; they are usually repeats but may differ in a detail not shown here. Identical values can stand only once.

Key:
[1] = target: T1, recombinant soybean HIDH (2-hydroxyisoflavanone dehydratase) (Glycine max, UniProt Q5NUF3); test: 2-hydroxyisoflavanone dehydratase assay, recombinant soybean HIDH; type: biochemical; details: for Specific activity, Soybean Recombinant protein: purified recombinant protein, rate of isoflavone production, mean ± SD of three experiments
T1 construct: the NdeI-BamHI fragment of soybean cDNA (HIDH) was also subcloned into the corresponding sites of the pET28a; made in house; host or cells: E. coli BL21 (DE3), vector pET28a, purified with HisTrap Kit
T1 sequence (Q5NUF3 1-319): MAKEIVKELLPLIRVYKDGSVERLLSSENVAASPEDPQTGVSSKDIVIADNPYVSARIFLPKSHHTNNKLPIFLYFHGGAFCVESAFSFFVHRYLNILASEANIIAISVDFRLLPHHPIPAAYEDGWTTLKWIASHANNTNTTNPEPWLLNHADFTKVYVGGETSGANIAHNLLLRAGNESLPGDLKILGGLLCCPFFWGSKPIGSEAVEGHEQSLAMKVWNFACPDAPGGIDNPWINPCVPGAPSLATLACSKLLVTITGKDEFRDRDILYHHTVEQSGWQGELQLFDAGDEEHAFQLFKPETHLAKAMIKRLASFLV
Description: (§1) An enzyme preparation was added to 2,7,4′-trihydroxyisoflavanone, 2,7-dihydroxy-4′-methoxyisoflavanone, or 2,5,7,4′-tetrahydroxyisoflavanone (5 nmol each) in 2-methoxyethanol so as to be in a total volume of 100 μl, and then the whole was incubated at 30° C. for 10 minutes.
(§2) A concentrated ethyl acetate extract was incubated with recombinant licorice HIDM (1 μg) at 30° C. for 10 minutes. An ethyl acetate extract from the mixture was analyzed by high-performance liquid chromatography (HPLC). The HPLC for both daidzein and formononetin analysis was carried out using a Capcell pak C18 MG column (4.6×150 mm; Shiseido Co., Ltd.) at 40° C. (flow volume=0.8 ml/min) (Non-Patent Document 12) with a linear gradient elution for 40 minutes from 35% to 55% methanol in 3% aqueous acetic acid. 5-Hydroxyisoflavones were analyzed using a Capcell pak C18MG column (4.6×150 mm; Shiseido Co., Ltd.) with a 50% methanol aqueous solution (for genistein) or a 55% methanol aqueous solution (for biochanin A) at 40° C. (flow rate=0.8 ml/min).
(§3) The purified recombinant protein (approximately 10 ng of protein) and cell-free extracts of licorice and soybean (approximately 10 μg of protein) were used to determine their specific activity. The concentration of isoflavone was calculated from the HPL peak area of the standard sample of each of daidzein, formononetin, and genistein.
(§4) The NdeI-BamHI fragment of the PCR product from licorice HIDM was cloned into the corresponding sites of pET28a (Novagen Ltd.). In addition, the NdeI-BamHI fragment of soybean cDNA (HIDH) was also subcloned into the corresponding sites of the pET28a. The expression and purification of recombinant 2-hydroxyisoflavanone dehydratases were carried out by the following procedures (Non-Patent Document 12). The E. coli BL21 (DE3) cells transformed with the vector containing HIDM or HIDH were incubated up to OD600=0.4 in a LB/ampicillin medium supplemented with 20 ml of 50 μg/ml kanamycin or ampicillin at 30° C. IPTG was added to the culture so as to be a final concentration of 1.0 mM and the whole was incubated at 30° C. for six hours. The licorice HIDM and soybean HIDH were purified from the crude extracts of HIDM and HIDH-expression E. coli using HisTrap Kit (Amersham Biosciences Corporation), respectively.

[2] = target: T2, recombinant licorice HIDM (2-hydroxyisoflavanone dehydratase) (Glycyrrhiza echinata, UniProt Q5NUF4); test: 2-hydroxyisoflavanone dehydratase assay, recombinant licorice HIDM; type: biochemical; details: for Specific activity, Licorice Recombinant protein: purified recombinant protein, rate of isoflavone production, mean ± SD of three experiments
T2 construct: The NdeI-BamHI fragment of the PCR product from licorice HIDM was cloned into the corresponding sites of pET28a; made in house; host or cells: E. coli BL21 (DE3), vector pET28a, purified with HisTrap Kit
T2 sequence (Q5NUF4 1-328): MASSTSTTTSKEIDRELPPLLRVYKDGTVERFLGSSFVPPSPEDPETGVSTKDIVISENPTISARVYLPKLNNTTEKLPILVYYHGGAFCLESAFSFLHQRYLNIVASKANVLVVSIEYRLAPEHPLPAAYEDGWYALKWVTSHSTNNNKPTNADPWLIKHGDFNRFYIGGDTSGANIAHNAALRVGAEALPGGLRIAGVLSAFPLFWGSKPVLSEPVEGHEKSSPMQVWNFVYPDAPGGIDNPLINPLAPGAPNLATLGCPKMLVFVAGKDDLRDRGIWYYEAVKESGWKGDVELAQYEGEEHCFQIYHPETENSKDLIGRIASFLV
Description: as §1
The assay of 2,5,7-trihydroxy-4′-methoxyisoflavanone dehyderatase (biochanin A synthetase) was carried out as follows. 2,5,7,4′-tetrahydroxyisoflavanone (10 nmol) dissolved in 2-methoxyethanol was incubated together with licorice HI4′OMT (1 μg) and 1 μmol of S-adenosyl-L-methionine (SAM) at 30° C. for 15 minutes.
as §2, §3, §4

[3] = target: T3, 2-hydroxyisoflavanone dehydratase in cell-free extract of licorice cells (strain AK-1) (Glycyrrhiza echinata, UniProt Q5NUF4); test: 2-hydroxyisoflavanone dehydratase assay, licorice crude extract; type: biochemical; details: for Specific activity, Licorice Crude extract: rate of isoflavone production, 30° C., 10 minutes, mean ± SD of three experiments
T3 construct: Licorice cells (10 g) after elicitor treatment (for 24 hours) or 1-week old soybean raised from seeds (10 g) were homogenized; endogenous in cells; host or cells: elicitor-treated licorice cultured cells (strain AK-1); 30-80% ammonium sulfate fraction of the cell-free extract
T3 sequence (Q5NUF4 1-328): T2 sequence (Q5NUF4 1-328)
Description: (§5) All procedures were carried out at 4° C. Licorice cells (10 g) after elicitor treatment (for 24 hours) or 1-week old soybean raised from seeds (10 g) were homogenized in a mortar with 10 ml of a 100-mM potassium phosphate buffer (pH 7.5) containing 10% sucrose and 14 mM of 2-mercaptoethanol and with sea sand (2.5 g). The resulting homogenate was filtered through gauze and then centrifuged at 10,000×g for 10 minutes. Supernatant was mixed with 2.5 g of Dowex 1-X2 (equilibrated with a 100-mM potassium phosphate buffer), followed by standing for 20 minutes. The solution obtained from the filtration was fractionated with ammonium sulfate and a 30-80% saturated fraction was then demineralized through a Sephadex G-25 column and dissolved in a 100-mM potassium phosphate buffer (pH 7.5) containing 10% sucrose and 14-mM 2-mercaptoethanol, followed by being used in the assay (approximately 600 μg/ml of protein).
as §1
as §2, with “(flow volume=0.8 ml/min) (Non-Patent Document 12) with a linear gradient elution for 40 minutes from 35% to 55% methanol in 3% aqueous acetic acid.” left out, “(flow rate=0.8 ml/min).” left out
as §3

[4] = tested on: 2-hydroxyisoflavanone dehydratase in cell-free extract of soybean seedling; test: 2-hydroxyisoflavanone dehydratase assay, soybean crude extract; type: biochemical, Glycine max; details: for Specific activity, Soybean Crude extract: rate of isoflavone production, 30° C., 10 minutes, mean ± SD of three experiments
Description: as §5, §1, §2, §3

[5] = tested on: Carboxylesterase from pig liver; test: Carboxylesterase activity of pig liver carboxylesterase (positive control); type: biochemical; details: rate of p-nitrophenol production, 30° C., absorbance at 400 nm
Description: (§6) The specific carboxylesterase activities of recombinant licorice HIDM and soybean HIDH proteins were calculated from the generation rate of p-nitrophenol measured at 30° C. by an absorbance at 400 nm in 1.5 ml of a 50-mM Tris-HCl buffer containing 150 mM of NaCl and 750 nmol of p-nitrophenyl butyrate (Heymann 1981). Commercially-available pig liver carboxylesterase (Sigma Corporation) was used as a positive control. Thermally-denatured (100° C., 10 minutes) licorice HIDM, soybean HIDH, and pig liver carboxylesterase protein were analyzed as negative controls, respectively.

[6] = target: T4, recombinant soybean HIDH (Glycine max, UniProt Q5NUF3); test: Carboxylesterase activity of recombinant soybean HIDH; type: biochemical
T4 construct: the NdeI-BamHI fragment of soybean cDNA (HIDH) was also subcloned into the corresponding sites of the pET28a; made in house; host or cells: E. coli BL21 (DE3), vector pET28a, purified with HisTrap Kit
T4 sequence (Q5NUF3 1-319): T1 sequence (Q5NUF3 1-319)
Description: as §6

[7] = target: T5, recombinant licorice HIDM (Glycyrrhiza echinata, UniProt Q5NUF4); test: Carboxylesterase activity of recombinant licorice HIDM; type: biochemical
T5 construct: The NdeI-BamHI fragment of the PCR product from licorice HIDM was cloned into the corresponding sites of pET28a; made in house; host or cells: E. coli BL21 (DE3), vector pET28a, purified with HisTrap Kit
T5 sequence (Q5NUF4 1-328): T2 sequence (Q5NUF4 1-328)
Description: as §6

[8] = tested on: 2-hydroxyisoflavanone dehydratase of P. lobata; details: Hakamatsuka et al., 1998; cited from earlier work
[9] = tested on: Carboxylesterase from pig liver; test: 2-hydroxyisoflavanone dehydratase assay, carboxylesterase from pig liver; type: biochemical
Description: as §1
as §2, with “(flow volume=0.8 ml/min) (Non-Patent Document 12) with a linear gradient elution for 40 minutes from 35% to 55% methanol in 3% aqueous acetic acid.” left out, “(flow rate=0.8 ml/min).” left out
as §6, with “Commercially-available pig liver carboxylesterase (Sigma Corporation) was used as a positive control.” left out

[10] = rate of p-nitrophenol production, 30° C., absorbance at 400 nm

For `COc1ccc(C2C(=O)c3ccc(O)cc3OC2O)cc1` (stereo not drawn) [2,7-dihydroxy-4′-methoxyisoflavanone], the “Specific activity, Soybean Recombinant protein” value [1] was 0.90 ± 0.1 nkatal/mg, the “Specific activity, Licorice Recombinant protein” value [2] was 52.1 ± 1.5 nkatal/mg and the “Specific activity of licorice HIDM, times as high as to 2,7,4′-trihydroxyisoflavanone” value ([2]; recombinant licorice HIDM) was 74 times. For the same compound, the “Specific activity, Licorice Crude extract” value [3] was 123.0 ± 8 pkatal/mg and the “Specific activity, Soybean Crude extract” value [4] was 97.4 ± 10 pkatal/mg.

For `COc1ccc(C2C(=O)c3c(O)cc(O)cc3OC2O)cc1` (stereo not drawn) [2,5,7-trihydroxy-4′-methoxyisoflavanone], the “Product detected by HPLC after incubation with licorice HIDM” value ([2]; substrate made with HI4′OMT and SAM, HIDM 1 μg, 30° C., 10 minutes) was “biochanin A was detected”.

With `CCCC(=O)Oc1ccc([N+](=O)[O-])cc1` [p-nitrophenyl butyrate] the “Specific carboxylesterase activity, Carboxylesterase from pig liver” value [5] was 425 ± 7 (f) nkatal/mg, the “Carboxylesterase activity of recombinant soybean dehydratase” value [6] was “weak activity” and the “Carboxylesterase activity of soybean HIDH as fraction of the pig liver enzyme” value [6] was “approximately 1/50”. For the same compound, the “Specific carboxylesterase activity, Soybean Recombinant protein” value [6, 10] was 7.20 ± 0.4 (f) nkatal/mg, the “Carboxylesterase activity of recombinant licorice dehydratase” value [7] was “weak activity” and the “Specific carboxylesterase activity, Licorice Recombinant protein” value [7, 10] was 0.32 ± 0.07 (f) nkatal/mg.

For `O=C1c2c(O)cc(O)cc2OC(O)C1c1ccc(O)cc1` (stereo not drawn) [2,5,7,4′-tetrahydroxyisoflavanone], the “Specific activity, Soybean Recombinant protein” value [1] was 3.55 ± 0.6 nkatal/mg, the “Product formation by soybean HIDH (HPLC)” value ([1]; recombinant soybean HIDH) was “catalyzed the production of genisein” and the “Specific activity, Soybean Crude extract” value [4] was 19.6 ± 3 pkatal/mg. The “Production of genistein, level with respect to the production of daidzein” value ([4]; soybean extract) was “approximately 1/10”.

For `O=C1c2ccc(O)cc2OC(O)C1c1ccc(O)cc1` (stereo not drawn) [2,7,4′-trihydroxyisoflavanone], the “Specific activity, Soybean Recombinant protein” value [1] is given as 43.6 nkatal/mg and 43.6 ± 4 nkatal/mg, the “Specific activity, Licorice Recombinant protein” value [2] is given as 0.70 ± 0.08 nkatal/mg and the “Specific activity of dehydratase of P. lobata” value [8] is given as 56.8 mkatal/kg protein. The “Activity (daidzein production), times as small as the production of formononetin” value ([3]; licorice extract, versus 2,7-dihydroxy-4′-methoxyisoflavanone) was “approximately 160 times”, the “Specific activity, Licorice Crude extract” value [3] was 0.8 ± 0.03 pkatal/mg and the “Dehydration by carboxylesterase from pig liver” value [9] was “did not dehydrate”. The “Specific activity, Carboxylesterase from pig liver (dehydration)” value ([9]; rate of isoflavone production) was 0 nkatal/mg and the “Specific activity, Soybean Crude extract” value [4] was 197.3 ± 15 pkatal/mg.
